Data: patent publication US9145397B2, “Process for the preparation of 1-(2-methyl-4-(2,3,4,5-tetrahydro-1-benzazepin-1-ylcarbonyl) benzylcarbamoyl)-L-proline-N, N-dimethylamide” (Vantia Limited, priority 2011, dated 2015)

Columns and labels:
vasopressin V2 receptor = target: T1, vasopressin V2 receptor (Rattus norvegicus, UniProt Q00788); test: in vivo assay described in PCT/GB2001/000023 (inhibition of urine output); details: at 1 hour; dosed at 1 mg/Kg
T1 construct: from tissue; host or cells: whole animal, in vivo (endogenous receptor)
Description: The ability of the crystalline form of the invention to agonise the vasopressin V2 receptor may be determined using the in vivo assay described in PCT/GB2001/000023.

[1] = Gravimetric Vapour Sorption Analysis (GVA); format: physicochemical; details: amorphous solid prepared as in PCT/GB2001/000023
Description: 1-(2-methyl-4-(2,3,4,5-tetrahydro-1-benzazepin-1-ylcarbonyl)benzylcarbamoyl)-L-proline-N,N-dimethylamide was first described in international patent application WO 2001/049682 (PCT/GB2001/000023). […] Moreover, scanning electron micrographs (SEM) of this amorphous form show it to consist of irregular, predominantly large (>5 μm in diameter) aggregates. These properties of the amorphous form render it less suitable for use in a manufacturing process.

T1 sequence (Q00788 whole entry): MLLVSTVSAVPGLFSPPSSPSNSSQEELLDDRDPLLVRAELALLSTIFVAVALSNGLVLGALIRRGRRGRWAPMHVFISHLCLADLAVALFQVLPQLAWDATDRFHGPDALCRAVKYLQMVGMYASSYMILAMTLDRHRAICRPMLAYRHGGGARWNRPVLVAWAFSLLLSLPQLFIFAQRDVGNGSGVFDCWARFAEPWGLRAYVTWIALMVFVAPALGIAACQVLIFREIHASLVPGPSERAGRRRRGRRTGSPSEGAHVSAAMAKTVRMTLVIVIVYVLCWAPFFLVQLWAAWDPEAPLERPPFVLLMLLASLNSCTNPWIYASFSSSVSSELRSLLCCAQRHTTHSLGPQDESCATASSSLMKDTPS

Compound	inhibition of urine output (vasopressin V2 receptor)	hygroscopicity by Gravimetric Vapour Sorption Analysis (GVA) [1]
Cc1cc(C(=O)N2CCCCc3ccccc32)ccc1CNC(=O)N1CCC[C@H]1C(=O)N(C)C [1-(2-methyl-4-(2,3,4,5-tetrahydro-1-benzazepin-1-ylcarbonyl)benzylcarbamoyl)-L-proline-N,N-dimethylamide]	82%	–
Cc1cc(C(=O)N2CCCCc3ccccc32)ccc1CNC(=O)N1CCC[C@H]1C(=O)N(C)C [amorphous form, 1-(2-methyl-4-(2,3,4,5-tetrahydro-1-benzazepin-1-ylcarbonyl)benzylcarbamoyl)-L-proline-N,N-dimethylamide]	–	hygroscopic
